From patent US12466846B2, “Siloxane derivatives of amino acids having surface-active properties” (AdvanSix Resins & Chemicals LLC, priority 2022, dated 2025)

Assay: Critical micelle concentration and minimum surface tension from surface tension versus concentration in water, Wilhelmy plate method
Assay type: physicochemical
Settings: for plateau value of minimum surface tension that can be reached: in water, Wilhelmy plate, 23° C.; for interfacial / surfactant activity (in words): judged from the plateau minimum surface tension and CMC in water
Description: These properties may be measured and described by various methods. One method by which surfactants may be described is by the molecule's critical micelle concentration (CMC). CMC may be defined as the concentration of a surfactant at which micelles form, and above which all additional surfactant is incorporated into micelles.
As surfactant concentration increases, surface tension decreases. Once the surface is completely overlaid with surfactant molecules, micelles begin to form. This point represents the CMC, as well as the minimum surface tension. Further addition of surfactant will not further affect the surface tension. CMC may therefore be measured by observing the change in surface tension as a function of surfactant concentration. One such method for measuring this value is the Wilhemy plate method. A Wilhelmy plate is usually a thin iridium-platinum plate attached to a balance by a wire and placed perpendicularly to the air-liquid interface. The balance is used to measure the force exerted on the plate by wetting. This value is then used to calculate the surface tension (γ) according to Equation 1: γ=F/l cos θ: Equation 1 wherein I is equal to the wetted perimeter (2w+2d, in which w and d are the plate thickness and width, respectively) and cos θ, the contact angle between the liquid and the plate, is assumed to be […] in the absence of an extant literature value.
Nuclear magnetic resonance (NMR) spectroscopy was performed on a Bruker 500 MHz spectrometer. The critical micelle concentration (CMC) was determined by the Wilhelmy plate method at 23° C. with a tensiometer (DCAT 11, DataPhysics Instruments GmbH) equipped with a Pt—Ir plate. Dynamic surface tension was determined with a bubble pressure tensiometer (Krüss BP100, Krüss GmbH), at 23° C. Contact angle was determined with the optical contact angle goniometer (OCA 15 Pro, DataPhysics GmbH) equipped with a digital camera.

Row | SMILES | plateau value of minimum surface tension that can be reached | interfacial / surfactant activity (in words)
1 | C[N+](C)(CCCCCC(=O)NCCC[Si](O[Si](C)(C)C)(O[Si](C)(C)C)O[Si](C)(C)C)Cc1ccccc1 [Surfactant 1, N-benzyl-6-((3-(1,1,1,5,5,5-hexamethyl-3-((trimethylsilyl)oxy)trisiloxan-3-yl)propyl)amino)-N,N-dimethyl-6-oxohexan-1-aminium bromide] | around 20.67 mN/m | outstanding interfacial activity
2 | CCOC(=O)C[N+](C)(C)CCCCCC(=O)NCCC[Si](O[Si](C)(C)C)(O[Si](C)(C)C)O[Si](C)(C)C [Surfactant 2, N-(2-ethoxy-2-oxoethyl)-6-((3-(1,1,1,5,5,5-hexamethyl-3-((trimethylsilyl)oxy)trisiloxan-3-yl)propyl)amino)-N,N-dimethyl-6-oxohexan-1-aminium bromide] | around 20.36 mN/m | outstanding interfacial activity
3 | C=CC[N+](C)(C)CCCCCC(=O)NCCC[Si](O[Si](C)(C)C)(O[Si](C)(C)C)O[Si](C)(C)C [Surfactant 3, N-allyl-6-((3-(1,1,1,5,5,5-hexamethyl-3-((trimethylsilyl)oxy)trisiloxan-3-yl)propyl)amino)-N,N-dimethyl-6-oxohexan-1-aminium iodide] | about 20.67 mN/m | outstanding interfacial activity
4 | C#CC[N+](C)(C)CCCCCC(=O)NCCC[Si](O[Si](C)(C)C)(O[Si](C)(C)C)O[Si](C)(C)C [Surfactant 4, 6-((3-(1,1,1,5,5,5-hexamethyl-3-((trimethylsilyl)oxy)trisiloxan-3-yl)propyl)amino)-N,N-dimethyl-6-oxo-N-(prop-2-yn-1-yl)hexan-1-aminium bromide] | about 20.54 mN/m | outstanding interfacial activity
5 | COCCOCC[N+](C)(C)CCCCCC(=O)NCCC[Si](O[Si](C)(C)C)(O[Si](C)(C)C)O[Si](C)(C)C [Surfactant 5, 6-((3-(1,1,1,5,5,5-hexamethyl-3-((trimethylsilyl)oxy)trisiloxan-3-yl)propyl)amino)-N-(2-(2-methoxyethoxy)ethyl)-N,N-dimethyl-6-oxohexan-1-aminium bromide] | about 20.40 mN/m | outstanding interfacial activity
6 | CCOP(=O)(CCC[N+](C)(C)CCCCCC(=O)NCCC[Si](O[Si](C)(C)C)(O[Si](C)(C)C)O[Si](C)(C)C)OCC [Surfactant 6, N-(3-(diethoxyphosphoryl)propyl)-6-((3-(1,1,1,5,5,5-hexamethyl-3-((trimethylsilyl)oxy)trisiloxan-3-yl)propyl)amino)-N,N-dimethyl-6-oxohexan-1-aminium bromide] | about 20.48 mN/m | outstanding interfacial activity
7 | C[N+](C)(CCCO)CCCCCC(=O)NCCC[Si](O[Si](C)(C)C)(O[Si](C)(C)C)O[Si](C)(C)C [Surfactant 7, 6-((3-(1,1,1,5,5,5-hexamethyl-3-((trimethylsilyl)oxy)trisiloxan-3-yl)propyl)amino)-N-(3-hydroxypropyl)-N,N-dimethyl-6-oxohexan-1-aminium iodide] | about 20.61 mN/m | outstanding interfacial activity
8 | C[N+](C)(CCO)CCCCCC(=O)NCCC[Si](O[Si](C)(C)C)(O[Si](C)(C)C)O[Si](C)(C)C [Surfactant 8, 6-((3-(1,1,1,5,5,5-hexamethyl-3-((trimethylsilyl)oxy)trisiloxan-3-yl)propyl)amino)-N-(2-hydroxyethyl)-N,N-dimethyl-6-oxohexan-1-aminium iodide] | about 20.41 mN/m | outstanding interfacial activity
9 | C[N+](C)(CCCCCC(=O)O)CCCCCC(=O)NCCC[Si](O[Si](C)(C)C)(O[Si](C)(C)C)O[Si](C)(C)C [Surfactant 9a, N-(5-carboxypentyl)-6-((3-(1,1,1,5,5,5-hexamethyl-3-((trimethylsilyl)oxy)trisiloxan-3-yl)propyl)amino)-N,N-dimethyl-6-oxohexan-1-aminium bromide] | about 20.52 mN/m | 
10 | C[N+](C)(CCCCCC(=O)NCCC[Si](O[Si](C)(C)C)(O[Si](C)(C)C)O[Si](C)(C)C)CC(=O)O [Surfactant 9b, N-(carboxymethyl)-6-((3-(1,1,1,5,5,5-hexamethyl-3-((trimethylsilyl)oxy)trisiloxan-3-yl)propyl)amino)-N,N-dimethyl-6-oxohexan-1-aminium bromide] | about 29.16 mN/m | excellent activity
11 | C[N+](C)(CCCCCC(=O)NCCC[Si](O[Si](C)(C)C)(O[Si](C)(C)C)O[Si](C)(C)C)CCC[N+](C)(C)CCCCCC(=O)NCCC[Si](O[Si](C)(C)C)(O[Si](C)(C)C)O[Si](C)(C)C [Surfactant 10, N^1,N^3-bis(6-((3-(1,1,1,5,5,5-hexamethyl-3-((trimethylsilyl)oxy)trisiloxan-3-yl)propyl)amino)-6-oxohexyl)-N^1,N^1,N^3,N^3-tetramethylpropane-1,3-diaminium dibromide] | about 22.12 mN/m | interfacial activity
